Test system in one data set: not given
Experiment: not given
Details: not given
The term melting point denotes the temperature of the solid-liquid transition. Turning to `COc1nc(C)c(N2CCCn3c2nc2c(Br)ccc(C(OC(F)F)C(F)(F)F)c23)c(C)n1` (stereo not drawn) [Example 519, 9-Bromo-6-[1-(difluoromethoxy)-2,2,2-trifluoroethyl]-1-(2-methoxy-4,6-dimethylpyrimidin-5-yl)-1,2,3,4-tetrahydropyrimido[1,2-a]benzimidazole], the melting point is 211 to 213 °C. As to `COc1nc(C)c(N2CCCn3c2nc2c(Cl)ccc(C(NC(=O)C(F)F)C(F)(F)F)c23)c(C)n1` (stereo not drawn) [Example 190, N-{1-[9-Chloro-1-(2-methoxy-4,6-dimethylpyrimidin-5-yl)-1,2,3,4-tetrahydropyrimido[1,2-a]benzimidazol-6-yl]-2,2,2-trifluoroethyl}-2,2-difluoroacetamide], the melting point was in the range of 155 to 156 °C.

In turn, `CCN(CC)c1cccc2nc3n(c12)CC(CC(=O)OC)N3c1ccc(Cl)cc1Cl` (stereo not drawn) [Example 72, Methyl [1-(2,4-dichlorophenyl)-5-(diethylamino)-2,3-dihydro-1H-imidazo[1,2-a]benzimidazol-2-yl]acetate] showed a melting point of 137 to 138 °C. `Cc1nc(N2CCCCC2)ccc1N1CCCn2c1nc1c(Cl)ccc(C(OC(F)F)C(F)(F)F)c12` (stereo not drawn) [Example 295, 9-Chloro-6-[1-(difluoromethoxy)-2,2,2-trifluoroethyl]-1-(2-methyl-6-piperidin-1-ylpyridin-3-yl)-1,2,3,4-tetrahydropyrimido[1,2-a]benzimidazole]: the melting point lay in the range of 164 to 167 °C. In turn, `O=C(c1cccc2nc3n(c12)CCCN3c1ccc(Cl)cc1Cl)C1CC1` [Example 199, Cyclopropyl[1-(2,4-dichlorophenyl)-1,2,3,4-tetrahydropyrimido[1,2-a]benzimidazol-6-yl]methanone] registered a melting point of 189 to 190 °C. With `CCC(C)Nc1cccc2nc3n(c12)CCCN3c1ccc(Cl)cc1Cl` (stereo not drawn) [Example 207, 1-(2,4-Dichlorophenyl)-N-(1-methylpropyl)-1,2,3,4-tetrahydropyrimido[1,2-a]benzimidazol-6-amine], the melting point lay in the range of 180 to 181 °C.

Regarding `CCN(CC)Cc1cccc2nc3n(c12)CCCN3c1ccc(Cl)cc1Cl` [Example 89, N-{[1-(2,4-Dichlorophenyl)-1,2,3,4-tetrahydropyrimido[1,2-a]benzimidazol-6-yl]methyl}-N-ethylethanamine], the melting point was in the range of 112 to 114 °C. In turn, `CCN(CC)c1cccc2nc3n(c12)CCCN3c1ccc(Cl)cc1Cl` [Example 20, 1-(2,4-Dichlorophenyl)-N,N-diethyl-1,2,3,4-tetrahydropyrimido[1,2-a]benzimidazol-6-amine] showed a melting point of 131 to 133 °C.

For `COc1nc(C)c(N2CCCn3c2nc2c(C#N)ccc(C(OC(F)F)C(F)(F)F)c23)c(C)n1` (stereo not drawn) [Example 520, 6-[1-(Difluoromethoxy)-2,2,2-trifluoroethyl]-1-(2-methoxy-4,6-dimethylpyrimidin-5-yl)-1,2,3,4-tetrahydropyrimido[1,2-a]benzimidazole-9-carbonitrile], the melting point lay in the range of 250 to 252 °C.

`CCC(O)c1ccc(Cl)c2nc3n(c12)CCCN3c1ccc(Cl)cc1Cl` (single isomer, unassigned; (-)) [Example 438, (−)-1-[9-Chloro-1-(2,4-dichlorophenyl)-1,2,3,4-tetrahydropyrimido[1,2-a]benzimidazol-6-yl]propan-1-ol] had a melting point of 221 to 223 °C. `COc1nc(C)c(N2CCCn3c2nc2c(OC)ccc(C(OC(F)F)C(F)(F)F)c23)c(C)n1` (stereo not drawn) [Example 526, 6-[1-(Difluoromethoxy)-2,2,2-trifluoroethyl]-9-methoxy-1-(2-methoxy-4,6-dimethylpyrimidin-5-yl)-1,2,3,4-tetrahydropyrimido[1,2-a]benzimidazole] yielded a melting point of 201 to 203 °C. As for `CCC(c1cccc2nc3n(c12)CCCN3c1ccc(Cl)cc1Cl)N(C)C` (stereo not drawn) [Example 203, 1-[1-(2,4-Dichlorophenyl)-1,2,3,4-tetrahydropyrimido[1,2-a]benzimidazol-6-yl]-N,N-dimethylpropan-1-amine], the melting point is 144 to 145 °C. The compound `Cc1nc(N2CCCC2)ccc1N1CCCn2c1nc1c(Cl)ccc(C(OC(F)F)C(F)(F)F)c12` (stereo not drawn) [Example 294, 9-Chloro-6-[1-(difluoromethoxy)-2,2,2-trifluoroethyl]-1(2-methyl-6-pyrrolidin-1-ylpyridin-3-yl)-1,2,3,4-tetrahydropyrimido[1,2-a]benzimidazole] registered a melting point of 233 to 236 °C. The same measure, in the same setting: the result for `CCC(CC)c1ccc(Cl)c2nc3n(c12)CCN3C(=O)c1ccc(Cl)nc1` [Example 228, 8-Chloro-1-[(6-chloropyridin-3-yl)carbonyl]-5-(1-ethylpropyl)-2,3-dihydro-1H-imidazo[1,2-a]benzimidazole] reads 205 to 207 °C; that for `CCC(OC(C)=O)c1ccc(Cl)c2nc3n(c12)CCCN3c1ccc(OC)nc1C` (single isomer, unassigned; (+)) [Example 267, (+)-1-[9-Chloro-1-(6-methoxy-2-methylpyridin-3-yl)-1,2,3,4-tetrahydropyrimido[1,2-a]benzimidazol-6-yl]propyl acetate], 110 to 114 °C.

On to `CCN(CC)c1cccc2nc3n(c12)CCC(=O)N3c1ccc(Cl)cc1Cl` [Example 19, 1-(2,4-Dichlorophenyl)-6-(diethylamino)-3,4-dihydropyrimido[1,2-a]benzimidazol-2(1H)-one], for which the melting point lay in the range of 113 to 114 °C.

The compound `OC(c1ccc(Cl)c2nc3n(c12)CCN3c1ccc(Cl)cc1Cl)(C1CC1)C1CC1` [Example 430, [8-Chloro-1-(2,4-dichlorophenyl)-2,3-dihydro-1H-imidazo[1,2-a]benzimidazol-5-yl](dicyclopropyl)methanol] registered a melting point of 238 to 239 °C. Consider `NC(=O)c1cccc2nc3n(c12)CCCN3c1ccc(Cl)cc1Cl` [Example 83, 1-(2,4-Dichlorophenyl)-1,2,3,4-tetrahydropyrimido[1,2-a]benzimidazole-6-carboxamide], for which the melting point lay in the range of 198 to 200 °C. Still for that read-out and setting: the result for `CCN(CC)c1cccc2nc3n(c12)CC(CC(=O)O)N3c1ccc(Cl)cc1Cl` (stereo not drawn) [Example 73, [1-(2,4-Dichlorophenyl)-5-(diethylamino)-2,3-dihydro-1H-imidazo[1,2-a]benzimidazol-2-yl]acetic acid] reads 249 to 251 °C.

A further data set deals with T1, human CRF1 receptor (Homo sapiens, UniProt P34998).
T1 construct: expressed in transfected cells; host or cells: CHO cells (membrane fraction)
T1 sequence (P34998 24-415): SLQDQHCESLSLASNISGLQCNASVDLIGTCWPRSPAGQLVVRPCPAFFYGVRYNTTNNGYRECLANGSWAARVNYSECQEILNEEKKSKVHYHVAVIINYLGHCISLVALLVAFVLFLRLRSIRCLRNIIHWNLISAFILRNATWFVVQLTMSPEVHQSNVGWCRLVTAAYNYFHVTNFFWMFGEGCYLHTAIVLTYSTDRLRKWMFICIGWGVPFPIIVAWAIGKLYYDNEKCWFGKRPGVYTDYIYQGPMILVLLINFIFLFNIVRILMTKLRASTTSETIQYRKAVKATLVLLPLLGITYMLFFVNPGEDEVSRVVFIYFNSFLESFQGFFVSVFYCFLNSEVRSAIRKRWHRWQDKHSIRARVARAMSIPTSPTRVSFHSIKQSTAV
As to the kind of experiment: Measurement of CRF Binding Inhibitory Rate (receptor binding experiment with 125I-CRF). The following applies: human CRF1 receptor expressing CHO cellular membrane fraction, 50 pM 125I-CRF, room temperature 1.5 hr, 0.05 nM to 10 μM of compound; read-out: IC50 values (CRF binding inhibition).
As a reminder, the IC50 is the point on the concentration scale where inhibition reaches its midpoint. Consider `Cc1nc(OC(C)C)ccc1N1CCCn2c1nc1c(Cl)ccc(C(OC(F)F)C(F)(F)F)c12` (stereo not drawn) [Example 288, 9-Chloro-6-[1-(difluoromethoxy)-2,2,2-trifluoroethyl]-1-[2-methyl-6-(1-methylethoxy)pyridin-3-yl]-1,2,3,4-tetrahydropyrimido[1,2-a]benzimidazole], for which the IC50 is below 1000 nM. With `CCOC(c1ccc(Cl)c2nc3n(c12)CCCN3c1ccc(OC)cc1Cl)C(F)(F)F` (stereo not drawn) [Example 470], the IC50 was below 1000 nM. In the case of `CCC(CC)c1ccc(Cl)c2nc3n(c12)CCN3c1c(C)cc(Cl)cc1OC` [Example 1, 8-Chloro-1-(4-chloro-2-methoxy-6-methylphenyl)-5-(1-ethylpropyl)-2,3-dihydro-1H-imidazo[1,2-a]benzimidazole], the IC50 is below 1000 nM. For `CCC(OC(=O)C(C)(C)C)c1ccc(Cl)c2nc3n(c12)CCCN3c1ccc(Cl)cc1Cl` (stereo not drawn) [Example 481, 1-[9-Chloro-1-(2,4-dichlorophenyl)-1,2,3,4-tetrahydropyrimido[1,2-a]benzimidazol-6-yl]propyl 2,2-dimethylpropanoate], the IC50 is below 1000 nM. For the compound `CCC(OC(=O)C(C)C)c1ccc(Cl)c2nc3n(c12)CCCN3c1ccc(Cl)cc1Cl` (stereo not drawn) [Example 480, 1-[9-Chloro-1-(2,4-dichlorophenyl)-1,2,3,4-tetrahydropyrimido[1,2-a]benzimidazol-6-yl]propyl 2-methylpropanoate], the IC50 is below 1000 nM. Take `CCC(CC)c1ccc(Cl)c2nc3n(c12)CCCCN3c1cccnc1OC` [Example 55, 10-Chloro-7-(1-ethylpropyl)-1-(2-methoxypyridin-3-yl)-2,3,4,5-tetrahydro-1H-[1,3]diazepino[1,2-a]benzimidazole]: the IC50 is below 1000 nM. On to `CCC(CC)c1ccc(Cl)c2nc3n(c12)CCN3c1ccccc1Cl` [Example 13, 8-Chloro-1-(2-chlorophenyl)-5-(1-ethylpropyl)-2,3-dihydro-1H-imidazo[1,2-a]benzimidazole], for which the IC50 was below 1000 nM. `O=[N+]([O-])c1ccc(Cl)c2nc3n(c12)CCCN3c1ccc(Cl)cc1Cl` [Example 99, 9-Chloro-1-(2,4-dichlorophenyl)-6-nitro-1,2,3,4-tetrahydropyrimido[1,2-a]benzimidazole]: the IC50 was below 1000 nM. Consider `CCN(CC)c1cccc2nc3n(c12)CC(N=[N+]=[N-])CCN3c1ccc(Cl)cc1Cl` (stereo not drawn) [Example 361, 4-Azido-1-(2,4-dichlorophenyl)-N,N-diethyl-2,3,4,5-tetrahydro-1H-[1,3]diazepino[1,2-a]benzimidazol-7-amine], for which the IC50 was below 1000 nM. In the case of `CCC(OC(C)=O)c1ccc(Cl)c2nc3n(c12)CCCN3c1ccc(OC)nc1C` (single isomer, unassigned; (-)) [Example 266, (−)-1-[9-Chloro-1-(6-methoxy-2-methylpyridin-3-yl)-1,2,3,4-tetrahydropyrimido[1,2-a]benzimidazol-6-yl]propyl acetate], the 50% inhibitory concentration (IC50) was below 1000 nM. Still for that read-out and setting: the result for `FC(F)COC(c1ccc(Cl)c2nc3n(c12)CCCN3c1ccc(Cl)cc1Cl)C1CC1` (stereo not drawn) [Example 464, 9-Chloro-6-[cyclopropyl(2,2-difluoroethoxy)methyl]-1-(2,4-dichlorophenyl)-1,2,3,4-tetrahydropyrimido[1,2-a]benzimidazole] reads below 1000 nM.

The values above are taken from patent US8785460B2, “Tricyclic compounds and use thereof” (Takeda Pharmaceutical Company Limited, priority 2008, dated 2014).
